Results from US9518065B2, “IRAK inhibitors and uses thereof” (NIMBUS IRIS, INC., priority 2013, dated 2016).
Where two headings read alike, the source gives them in different places.

Columns and labels:
[1] = tested on: LPS induced TNF production; assay: In vivo LPS-induced cytokine production in rats; set-up: species or system female Lewis rats; conditions: for drug concentration corresponding to the minimal efficacious dose: 10 mg/kg PO; for minimal efficacious dose for inhibition of LPS induced TNF production in vivo: PO in 0.5% methylcellulose, LPS 2 hours after dose, serum TNF-α one hour later
Protocol: Compounds of the present invention were also assayed in vivo to determine their inhibitory effect on LPS-induced cytokine production. In vivo studies of LPS-induced cytokine production was conducted in female Lewis rats (n=10 each). Rats were dosed with compound at 30, 10, 3, or 1 mg/kg, 5 mg/kg dexamethasone, or vehicle, dosed PO in 0.5% methylcellulose. After 2 hours, rats were administered LPS in PBS at 0.1 mg/mL, 1 mL/kg. One hour later, rats were bled and serum was analyzed for TNF-α produced by ELISA (eBioscience).

[2] = tested on: TNFα and IL8 production in THP-1 cells; assay: LPS induced cytokine (TNFα and IL8) production assay in THP-1 cells; format: cell-based; conditions: 300 ng/mL LPS
Protocol: Provided compounds were also assayed in an LPS (Lipopolysacharide) or R848 (TLR-7 agonist) induced cytokine (TNFα and IL8) production assay in THP-1 cells, human white blood cells (hWBC), and whole blood. The exemplary protocol for this assay in THP-1 cells was as follows below.
THP-1 cells from ATCC (TIB-202) were cultured in RPMI Medium 1640 (Invitrogen, Cat No. A10491-01), 10% fetal bovine serum (Invitrogen, Cat No. 10099141, Lot No. 8172882) containing 100 U/mL Penicillin, 100 μg/mL streptomycin (Invitrogen, Cat No. 15140-122), and 50 uM 2-Mercaptoethanol (Invitrogen, Cat No. 21985023). LPS-EK ultra pure (Invivogen, Cat No. tlrl-peklps) was used to induce IL8 and TNFα production, that was detected in the cell culture supernatant by IL8 HTRF kit (Cisbio, Cat No. 62IL8PEB) and TNFα HTRF kit (Cisbio, Cat No. 62TNFPEB), as per manufacturer instructions. Cells were cultured in 96 well assay plates at 100,000 cells per well, and compounds diluted in final 0.3% DMSO were pre-incubated with cells for 1 hour prior to stimulation with 300 ng/mL LPS. Cytokine production in cell supernatant was measured at 5 hours for TNFα and IL8 production, and for 16 hours for IL8 production and assessment of cell viability.
The compound numbers correspond to the compound numbers in Table 1. […] “NA” stands for “not assayed.”

IRAK4 = biological target: T1, IRAK4 (Homo sapiens, UniProt Q9NWZ3); assay: IRAK-4 activity inhibition assay (Caliper); format: biochemical; conditions: 3.5 nM IRAK4, 37 μM ATP, 1.5 μM Peptide 8
T1 construct: purchased CARNA Bioscience 09-145
T1 sequence (Q9NWZ3 1-460): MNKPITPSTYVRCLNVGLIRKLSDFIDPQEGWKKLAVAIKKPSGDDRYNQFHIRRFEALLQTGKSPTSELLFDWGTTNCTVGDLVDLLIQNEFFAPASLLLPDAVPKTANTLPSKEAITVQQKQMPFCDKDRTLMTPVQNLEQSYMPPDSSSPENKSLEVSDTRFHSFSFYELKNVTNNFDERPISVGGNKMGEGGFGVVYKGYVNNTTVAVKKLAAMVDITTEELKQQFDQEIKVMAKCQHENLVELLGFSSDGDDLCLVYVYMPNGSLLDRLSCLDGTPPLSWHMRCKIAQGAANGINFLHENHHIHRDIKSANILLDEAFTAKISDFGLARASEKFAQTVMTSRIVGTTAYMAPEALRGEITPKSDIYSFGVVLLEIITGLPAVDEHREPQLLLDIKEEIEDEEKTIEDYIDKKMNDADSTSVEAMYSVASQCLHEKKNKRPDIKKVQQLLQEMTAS
Summary of the method: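 Caliper mobility-shift assay: 3.5 nM IRAK4 preincubated 10 min with compound (10-point series, duplicates), then 1.5 μM peptide 8 and 37 μM ATP added in HEPES pH 7.5 with Mg2+/Mn2+ and DTT, 40 min at 28°C before EDTA stop. Percent inhibition from substrate conversion relative to DMSO and no-enzyme controls.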

[3] = Homo sapiens, 5 hours, read-out: TNFα production IC50
[4] = Homo sapiens, 16 hours, read-out: IL8 (16 h) production IC50

Compound | drug concentration corresponding to the minimal efficacious dose [1] [nM] | minimal efficacious dose for inhibition of LPS induced TNF production in vivo [1] [mg/kg] | IC50 ([2]; 5 hours, read-out: TNFα production IC50) [nM] | IC50 ([2]; 16 hours, read-out: IL8 (16 h) production IC50) [nM] | IC50 (IRAK4) [nM] | IC50 [2, 3] [nM] | IC50 [2, 4] [nM]
2-methyl-N5-(1-methyl-1H-pyrazol-4-yl)-N7-((1r,4r)-4-morpholinocyclohexyl)thiazolo[5,4-d]pyrimidine-5,7-diamine [Compound I-24] | 6600 | 10 | ≥ 500 | 250 to 500 | ≤ 1000 | – | –
CCc1nc2c(N[C@H]3CC[C@H](N4CCOCC4)CC3)nc(Nc3cnn(C)c3)nc2s1 [Compound I-7, 2-ethyl-N5-(1-methyl-1H-pyrazol-4-yl)-N7-((1r,4r)-4-morpholinocyclohexyl)-thiazolo[5,4-d]pyrimidine-5,7-diamine] | 1600 | 10 | – | – | ≤ 1000 | ≤ 250 | ≤ 250
CCc1nc2c(N[C@H]3CC[C@H](N4CCOCC4)CC3)nc(Nc3cnn(C4CCOCC4)c3)nc2s1 [Compound I-9, 2-ethyl-5-N-[1-(oxan-4-yl)-1H-pyrazol-4-yl]-7-N—[trans-4-(morpholin-4-yl)cyclohexyl]-[1,3]thiazolo[5,4-d]pyrimidine-5,7-diamine] | 1050 | 10 | – | – | ≤ 1000 | ≤ 250 | ≤ 250
